In PMC9785230, “Glutamine Synthetase Contributes to the Regulation of Growth, Conidiation, Sclerotia Development, and Resistance to Oxidative Stress in the Fungus Aspergillus flavus” (Toxins, 2022):

Target: T1, glutamine synthetase AflGsA (recombinant rAflGsA) (Aspergillus flavus, UniProt A0A7U2MSK3)
T1 construct: gene F9C07_2280198; 6× His-rAflGsA, AflgsA cDNA cloned into pET-28a, expressed in E. coli BL21 (DE3)
T1 sequence (A0A7U2MSK3 1-357): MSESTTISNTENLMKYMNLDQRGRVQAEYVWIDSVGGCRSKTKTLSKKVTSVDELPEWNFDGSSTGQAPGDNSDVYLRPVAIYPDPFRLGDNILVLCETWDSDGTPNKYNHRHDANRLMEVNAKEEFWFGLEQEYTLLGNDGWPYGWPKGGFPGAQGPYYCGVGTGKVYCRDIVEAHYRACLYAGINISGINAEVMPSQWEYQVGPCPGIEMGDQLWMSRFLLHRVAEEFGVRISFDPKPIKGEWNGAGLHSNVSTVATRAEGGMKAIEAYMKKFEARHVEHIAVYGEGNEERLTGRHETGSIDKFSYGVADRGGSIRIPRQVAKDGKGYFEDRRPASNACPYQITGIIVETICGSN
Assay: glutamine synthetase activity assay at […] nm with purified recombinant enzyme, IC50 curve
Format: biochemical

- IC50: 288 µM
Structure (SMILES): N[C@@H](CCCC(=O)O)C(=O)O [L-α-aminoadipic acid]
